In patent publication US3989746A, “Substituted naphthyl anthranilic acids” (Ikeda Mohando Co., Ltd., priority 1972, dated 1976):

Columns and labels:
Adjuvant arthritis = experiment: Adjuvant arthritis; type: in vivo, rats (female, Wister type); conditions: Rattus norvegicus, 552 h; 9 mg/Kg per day oral for 25 days; foot volume on 23rd day from adjuvant injection; read-out: Anti-Inflammatory Effect Control Ratio, Adjuvant Arthritis
Procedure: With respect to the foregoing compounds, anti-inflammatory effects against carragheenin foot edema, ultraviolet erythema and adjuvant arthritis were tested by using rate according to the following methods to obtain results shown below.
The test was conducted according to a modification of the method of B. B. Newbould (Brit. J. Pharmacol., 21, 127 (1963)). Groups of female rats of the Wister type having a body weight of 180 - 240 g, each group consisting of 4 to 8 rats, were tested. 0.05 ml of an adjuvant (formed by suspending 5 mg of dead tuberculous bacillus, Aoyama B strain, in 1 ml of fluid paraffin according to the Japanese pharmacopoeia) was hypodermically injected in the right foot heel of each rat. A test compound was orally administered in a dosage of 9 mg/Kg per day in the form suspended in a 5% gum arabic liquor continuously for 25 days from one day before the injection of the adjuvant. In the case of the control group, only a 5% gum arabic liquor was continuously administered in the same manner. The volume of the right foot was measured 1 day before the injection of the adjuvant and on the 23rd day from the injection of the adjuvant with respect to each group. Thus, the increase of the foot volume was calculated in either the test compound-administered group or the control group, and the ratio of control of the adjuvant arthritis was calculated according to the following formula: [formula] in which C is the increase of the volume of the right foot in the control group and D indicates the increase of the volume of the right foot in the test compound-administered rat group.

in vivo [1] = conditions: rat, po
inflammatory pain = experiment: Analgesic effect on inflammatory pain (modified Randall and Selitto); type: in vivo, rats (male, Wister type); conditions: 100 mg/Kg oral, 1 hour before carragheenin; pain measured 3 hours after injection
Procedure: Groups of male rats of the Wister type having a body weight of about 150 g were tested, each group consisting of 5 rats. The rats were caused to abstain from food overnight, and 0.05 ml of a 1% carragheenin solution was hypodermically injected into the right hind leg of each rat. […] The test compound was orally administered in a dosage of 100 mg/Kg 1 hour before the injection of carragheenin. [formula]

Ultraviolet erythema = experiment: Ultraviolet erythema; type: in vivo, guinea pigs (male, Hartley type); conditions: Cavia porcellus, light or radiation study; 10 mg/Kg oral, 1 h before irradiation; read 3 h after irradiation; read-out: Anti-Inflammatory Effect Control Ratio, Ultraviolet Erythema
Procedure: The test was conducted according to a modification of the method of C. […] Groups of guinea pigs (male guinea pigs of the Hartley type having a body weight of 300 to 450 g), each group consisting of 5 to 10 guinea pigs, were employed for the test. Hairs were removed from backs of the guinea pigs by an electric hair-clipper and a depilatory agent. The guinea pigs were caused to abstain from food for 18 to 19 hours, and a test compound was orally administered in an amount of 10 mg/Kg in the form suspended in a 4% gum arabic liquor. In the case of control groups, only a 4% gum arabic liquor was administered. An adhesive plaster according to the Japanese pharmacopoeia, on which three small holes having a diameter of 5 mm were opened, was applied to the hair-removed portion of the back. […] When 3 hours had passed from the irradiation, the degree of the formation of erythema was determined. One point was given to the guinea pig on which a definite round erythema was formed, a point of 0.5 was given to the guinea pig on which formation of erythema was observed but its contour was not definite, and a point of 0 was given to the guinea pig on which no erythema was formed. Total points were calculated in both the test compound-administered group and the control group, and the control ratio was calculated from these total points. [formula]

in vivo [2] = conditions: mouse, in vivo, po
Procedure: (§1) With respect to the foregoing test compounds, the acute toxicity was examined by employing mice according to the following method.
(§2) Groups of male mice of the dd type having a body weight of 18 to 22 g, each, group consisting of 5 mice, were tested to determine the acute toxicity. The test compound was orally administered in a dosage indicated in Table 3a in the form suspended in 5% gum arabic liquor. The determination was conducted 7 days after the administration. Further, the LD50 values were calculated according to the method of Lichfield-Wilcoxon.

male mice = experiment: in vivo; conditions: 7 days
Procedure: as §1, §2

Carragheenin foot edema = experiment: Carragheenin foot edema; type: in vivo, rats (male, Wister type); conditions: Rattus norvegicus; 100 mg/Kg oral, 1 h before carragheenin; foot volume 3 h after injection; read-out: Anti-Inflammatory Effect Control Ratio, Carragheenin Foot Edema
Procedure: a. Carragheenin food edema
The test was conducted according to the method of C. […] Groups of rats (male rats of the Wister type having a body weight of 140-170 g), each group consisting of 5 to 11 rats, were caused to abstain from food for 16 hours, and a 4% gum arabic suspension of a test compound was orally administered to the rats in an amount of 100 mg/Kg. of the test compounds. Immediately, rats were allowed to drink 5 ml of purified water. […] After 3 hours had passed from the injection, the volume of the right foot was measured again to determine the increase of the volume of the right foot. In control groups, only a 4% gum arabic liquor free of a test compound was orally administered, and subsequent procedures were conducted similarly to determine the increase of the volume of the right foot. The carragheenin foot edema control ratio was calculated according to the following formula: [formula] wherein C indicates the foot volume increase in the control group and D indicates the foot volume increase in the test compound-administered group.

Q: What does the source list for `O=C(O)c1ccccc1Nc1cccc(C(F)(F)F)c1` [Compound F, flufenamic acid, reference compound]?
A: inhibition in vivo at 9 mg/kg (Adjuvant arthritis): 72.4%; LD50 (in vivo [1]): 270 mg/kg; Analgesic Coefficient (inflammatory pain): 1.42; inhibition in vivo at 10 mg/kg (Ultraviolet erythema): 60%; LD50 at 168 h (in vivo [2]): 545 mg/kg; Number of Dead Mice/Number of Mice Tested (male mice; 1 g/kg oral): 5 / 5; Number of Dead Mice/Number of Mice Tested (male mice; 2 g/kg oral): 5 / 5; inhibition in vivo at 100 mg/kg (Carragheenin foot edema): 60.7%
